Test results reported in PubChem BioAssay AID330 (DTP/NCI, 2004).
Where “and” joins values, the source holds several entries; their conditions need not be identical. Identical values can stand only once. Toxic doses and inconclusive results are not listed. How the source made its calls: active means survival T/C of 150% or more; inactive means T/C below 125% in these data.

System: P388 leukemia ip, CD2F1 mice, survival T/C
Test: NCI In Vivo Anticancer Drug Screen. Data for tumor model P388 Leukemia (intraperitoneal) in CD2F1 (CDF1) mice
Details: endpoint: median survival time, higher = longer survival
Procedure, shortened: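 Mice carrying the transplanted tumor received test compound or vehicle. Survival was recorded in each group, and the value is the treated-group measurement divided by that of the vehicle-treated control group.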

[1] = dose: 25.0 mg/kg/injection, schedule: Q01DX009 (ip), vehicle: saline with Tween-80
[2] = dose: 50.0 mg/kg/injection, schedule: Q01DX009 (ip), vehicle: saline with Tween-80
[3] = dose: 60.0 mg/kg/injection, schedule: Q01DX005 (ip), vehicle: saline with Tween-80
[4] = dose: 120.0 mg/kg/injection, schedule: Q01DX005 (ip), vehicle: saline with Tween-80
[5] = dose: 6.25 mg/kg/injection, schedule: Q01DX009 (ip), vehicle: saline with Tween-80
[6] = dose: 100.0 mg/kg/injection, schedule: Q04DX002 (ip), vehicle: saline with Tween-80
[7] = dose: 25.0 mg/kg/injection, schedule: Q01DX009 (ip), vehicle: Klucel (hydroxypropylcellulose) (HPC)
[8] = dose: 50.0 mg/kg/injection, schedule: Q01DX009 (ip), vehicle: Klucel (hydroxypropylcellulose) (HPC)

Measured: T/C

CCCC1CC[N-]CC1.CCCC1CC[N-]CC1.[Cl][Pt+2][Cl]
inactive: dose: 11.0 mg/kg/injection, schedule: Q01DX009 (ip), vehicle: saline with Tween-80 100 % of control | dose: 16.5 mg/kg/injection, schedule: Q01DX009 (ip), vehicle: saline with Tween-80 110 % of control | dose: 22.0 mg/kg/injection, schedule: Q01DX009 (ip), vehicle: saline with Tween-80 110 % of control | [1] 115 % of control | dose: 33.0 mg/kg/injection, schedule: Q01DX009 (ip), vehicle: saline with Tween-80 110 % of control | dose: 37.5 mg/kg/injection, schedule: Q01DX009 (ip), vehicle: saline with Tween-80 115 % of control | [2] 120 % of control

C/C(O)=C(/N=Nc1ccccc1)C(=O)O
inactive: [3] 110 % of control | [4] 98 % of control

O=C1c2ccccc2C(=O)N1CC[P+](c1ccccc1)(c1ccccc1)c1ccccc1
inactive: dose: 0.78 mg/kg/injection, schedule: Q01DX009 (ip), vehicle: water 87 % of control | dose: 1.56 mg/kg/injection, schedule: Q01DX009 (ip), vehicle: water 112 % of control and 103 % of control and 115 % of control | dose: 3.13 mg/kg/injection, schedule: Q01DX009 (ip), vehicle: saline with Tween-80 121 % of control | dose: 3.13 mg/kg/injection, schedule: Q01DX009 (ip), vehicle: water 123 % of control and 118 % of control and 120 % of control | [5] 88 % of control | dose: 12.5 mg/kg/injection, schedule: Q01DX009 (ip), vehicle: water 123 % of control and 105 % of control | dose: 18.8 mg/kg/injection, schedule: Q01DX009 (ip), vehicle: water 93 % of control | [1] 123 % of control | dose: 25.0 mg/kg/injection, schedule: Q01DX009 (ip), vehicle: water 98 % of control

O=C(Nc1cccc(O)c1)C(Cl)=C(Cl)Cl
inactive: dose: 3.12 mg/kg/injection, schedule: Q01DX005 (ip), vehicle: DMSO 109 % of control | dose: 6.25 mg/kg/injection, schedule: Q01DX005 (ip), vehicle: DMSO 104 % of control | dose: 6.25 mg/kg/injection, schedule: Q01DX005 (ip), vehicle: saline with Tween-80 101 % of control | dose: 12.5 mg/kg/injection, schedule: Q01DX005 (ip), vehicle: DMSO 109 % of control | dose: 12.5 mg/kg/injection, schedule: Q01DX005 (ip), vehicle: saline with Tween-80 115 % of control | dose: 25.0 mg/kg/injection, schedule: Q01DX005 (ip), vehicle: DMSO 108 % of control | dose: 25.0 mg/kg/injection, schedule: Q01DX005 (ip), vehicle: saline with Tween-80 110 % of control | dose: 50.0 mg/kg/injection, schedule: Q01DX005 (ip), vehicle: DMSO 104 % of control

CCN(CC)Cc1cc(C)c(O)c(N=Nc2cccc3ccccc23)c1C
inactive: [6] 86 % of control | dose: 200.0 mg/kg/injection, schedule: Q04DX002 (ip), vehicle: saline with Tween-80 91 % of control | dose: 400.0 mg/kg/injection, schedule: Q04DX002 (ip), vehicle: saline with Tween-80 109 % of control

CCN1CC2c3cc(OC)c(OC)cc3CC(c3ccccc3)C2C1 (configuration not stated)
inactive: [5] 120 % of control | dose: 12.5 mg/kg/injection, schedule: Q01DX009 (ip), vehicle: saline with Tween-80 120 % of control | [1] 100 % of control

C=C1C(=O)OC2CCC3OC(C)(C)OC3C12 (configuration not stated)
inactive: dose: 12.5 mg/kg/injection, schedule: Q01DX009 (ip), vehicle: DMSO 95 % of control | dose: 25.0 mg/kg/injection, schedule: Q01DX009 (ip), vehicle: DMSO 122 % of control | dose: 50.0 mg/kg/injection, schedule: Q01DX009 (ip), vehicle: DMSO 101 % of control | dose: 100.0 mg/kg/injection, schedule: Q01DX009 (ip), vehicle: DMSO 110 % of control | dose: 200.0 mg/kg/injection, schedule: Q01DX009 (ip), vehicle: DMSO 113 % of control

COc1ccc2c(c1)CCC(c1nc3cccc([N+](=O)[O-])c3[nH]c1=O)=C2O
inactive: dose: 7.5 mg/kg/injection, schedule: Q01DX005 (ip), vehicle: Klucel + Tween-80 91 % of control | dose: 15.0 mg/kg/injection, schedule: Q01DX005 (ip), vehicle: Klucel + Tween-80 94 % of control | dose: 30.0 mg/kg/injection, schedule: Q01DX005 (ip), vehicle: Klucel + Tween-80 92 % of control

N#CCCSC(=S)N1CCCCC1
inactive: [7] 104 % of control | [8] 104 % of control and 87 % of control | dose: 100.0 mg/kg/injection, schedule: Q01DX009 (ip), vehicle: Klucel (hydroxypropylcellulose) (HPC) 98 % of control and 101 % of control | dose: 200.0 mg/kg/injection, schedule: Q01DX009 (ip), vehicle: Klucel (hydroxypropylcellulose) (HPC) 90 % of control and 93 % of control | dose: 400.0 mg/kg/injection, schedule: Q01DX009 (ip), vehicle: Klucel (hydroxypropylcellulose) (HPC) 101 % of control

CN=C(N)N/N=C(/C)c1cc2ccccc2c2ccccc12
inactive: dose: 25.0 mg/kg/injection, schedule: Q04DX002 (ip), vehicle: saline with Tween-80 95 % of control | dose: 50.0 mg/kg/injection, schedule: Q04DX002 (ip), vehicle: saline with Tween-80 101 % of control | [6] 102 % of control

O=C(O)/C=C\C(=O)Nc1ccccn1
inactive: dose: 5.0 mg/kg/injection, schedule: Q01DX009 (ip), vehicle: saline with Tween-80 109 % of control | dose: 5.0 mg/kg/injection, schedule: Q01DX009 (ip), vehicle: saline 100 % of control | dose: 10.0 mg/kg/injection, schedule: Q01DX009 (ip), vehicle: saline with Tween-80 100 % of control | dose: 10.0 mg/kg/injection, schedule: Q01DX009 (ip), vehicle: saline 105 % of control | dose: 20.0 mg/kg/injection, schedule: Q01DX009 (ip), vehicle: saline with Tween-80 104 % of control | dose: 30.0 mg/kg/injection, schedule: Q01DX009 (ip), vehicle: saline 105 % of control | dose: 60.0 mg/kg/injection, schedule: Q01DX009 (ip), vehicle: saline 100 % of control

CC(C)n1cnc2c(=S)nc[nH]c21
inactive: [1] 90 % of control | [2] 100 % of control | dose: 100.0 mg/kg/injection, schedule: Q01DX009 (ip), vehicle: saline with Tween-80 109 % of control

O=C(Nc1ccc(Cc2ccc(NC(=O)Nc3nccs3)cc2)cc1)Nc1nccs1
inactive: dose: 12.5 mg/kg/injection, schedule: Q01DX009 (ip), vehicle: Klucel (hydroxypropylcellulose) (HPC) 100 % of control | [7] 100 % of control and 95 % of control | [8] 98 % of control and 91 % of control

Nc1nc(-c2ccccc2)cc(-c2cc(-c3ccccc3)nc(N)n2)n1
inactive: dose: 60.0 mg/kg/injection, schedule: Q01DX005 (ip), vehicle: saline 100 % of control | dose: 120.0 mg/kg/injection, schedule: Q01DX005 (ip), vehicle: saline 102 % of control | dose: 240.0 mg/kg/injection, schedule: Q01DX005 (ip), vehicle: saline 100 % of control

Cc1cccc(OC(=O)Nc2ccc(C(=O)O)c(O)c2)c1
inactive: [3] 106 % of control | [4] 90 % of control

C=CCOc1cc2c(cc1Cc1ccc3c(c1)OCO3)OCO2
inactive: dose: 50.0 mg/kg/injection, schedule: Q01DX005 (ip), vehicle: saline with Tween-80 100 % of control | dose: 100.0 mg/kg/injection, schedule: Q01DX005 (ip), vehicle: saline with Tween-80 100 % of control | dose: 200.0 mg/kg/injection, schedule: Q01DX005 (ip), vehicle: saline with Tween-80 103 % of control

CC(C)CC(NC(=O)OCCc1ccccn1)C(=O)NC(Cc1ccccc1)C(=O)OC(C)(C)C (configuration not stated)
inactive: dose: 60.0 mg/kg/injection, schedule: Q01DX005 (ip), vehicle: Klucel (hydroxypropylcellulose) (HPC) 101 % of control | dose: 120.0 mg/kg/injection, schedule: Q01DX005 (ip), vehicle: Klucel (hydroxypropylcellulose) (HPC) 95 % of control | dose: 240.0 mg/kg/injection, schedule: Q01DX005 (ip), vehicle: Klucel (hydroxypropylcellulose) (HPC) 94 % of control
